Laboratory results taken from patent publication US6603046B1, “Bis-aromatic a,β-unsaturated ketones” (Lica Pharmaceuticals A/S, priority 1992, dated 2003).

Key:
[1] = system: L. major promastigotes; test: In vitro growth of L. major promastigotes, 3H-thymidine uptake (Example 4); assay type: cell-based, Leishmania major; conditions: in vitro L. major growth test
[2] = Rate of the reaction between N-acetyl-L-cysteine and chalcones, HPLC; assay type: physicochemical; conditions: methanol-water-potassium phosphate buffer pH 7.5, 30° C.; first order
Excerpt: The decline of the chalcone concentration was followed by HPLC. The following experimental setups were used: 1. […] 2. […] This system was used i the case of 4′-methoxychalcone. The rate of decline of the chalcone concentration was followed by HPLC. The rate constant was estimated using Grafit and assuming that the reaction followed first order kinetic; i.e.: [c]=[c0]exp(−kt) where [c] is the concentration of the chalcone in question at time t, [c0] is the concentration of the chalcone in question at time zero, k is the rate constant, and t the time.

[3] = system: chloroquine resistant P. falciparum DD2 strain; test: In vitro growth of P. falciparum DD2, 3H-hypoxanthine uptake (Example 15); assay type: cell-based, Plasmodium falciparum; conditions: title: percentage inhibition of 3H-hypoxanthine uptake

## CC(C)=CCc1c(O)ccc(C(=O)/C=C/c2cc(O)c3c(c2)C=CC(C)(C)O3)c1O [(A)]
[1]
  antiparasitic effect in bioassay-guided fractionation: Only the latter compound showed major antiparasitic effects

## O=C(/C=C/c1ccc(O)cc1)c1ccc(O)cc1 [drawing 105]
[2]
  Estimated rate constant k: 0.0020 min⁻¹

## COc1ccc(/C=C/C(=O)c2ccccc2)c(OC)c1 [drawing 104]
[2]
  Estimated rate constant k: 0.0033 min⁻¹

## C=CCOc1ccc(C(=O)CCc2ccc(OC)cc2OC)cc1
[2]
  Estimated rate constant k: 0.0011 min⁻¹

## C=CCOc1ccc(C(=O)/C=C/c2c(OC)cccc2OC)cc1 [2,6-Dimethoxy-4′-allyloxychalcone, 2,6-dimethoxy-4′-prop-2-enyloxychalcone]
other
  melting point: 102 to 103 °C
[3]; 0.5 μg/ml
  Growth in % of control (mean ± SEM): 23.3 ± 10.9%
[3]; 1 μg/ml
  Growth in % of control (mean ± SEM): 24.3 ± 9.5%
[3]; 5 μg/ml
  Growth in % of control (mean ± SEM): 40.2 ± 8.7%
[3]; 10 μg/ml
  Growth in % of control (mean ± SEM): 56.7 ± 8.9%

## O=C(/C=C/c1ccccc1)c1ccccc1 [drawing 102, chalcone, reference compound]
[2]
  Estimated rate constant k: 0.034 min⁻¹
